Common to all, as to type: cell-based, human
The subject of experiment [1] is Sulfiredoxin (Srxn1) promoter. As to the kind of experiment: Srxn1-luciferase reporter assay (PMA-dependent activation). As to conditions: U2oS cells, normalised to Renilla, n=3, p<0.05. The protocol:
From this primary screen, we concentrated on the PYC36-like, AP1-inhibitory Phylomers, and selected 14 initial hits. Of these, 7 (TABLE 2 and FIG. 8) were confirmed to inhibit AP1-luciferase activity in a secondary reporter assay normalised to Renilla luciferase expression (FIG. 2). Briefly, Phylomer DNA of the primary hits was re-prepared from the original clones selected for the mini-library (Endo-Free Maxi-Prep, Qiagen), and 5×10^5 U2oS cells were co-transfected with 800 ng DNA comprising AP1-luciferase or Srxn1-luciferase (Papadia et al., 2008) (Firefly), pRL-TK (Renilla) and Phylomer plasmid. Reporter activity/inhibition was calculated by normalizing Firefly activity to Renilla.
As an additional confirmatory experiment, we asked whether these 6 Phylomers specifically regulated expression of a known AP1 target gene by testing their effect on the Sulfiredoxin (Srxn1) promoter, recently established as an AP1-dependent component of the anti-oxidant response mechanism (Papadia et al., 2008). Of the 6 Phylomers tested, 3 inhibited PMA-dependent activation of this promoter: 6G8, 25C3 and 48E6 (FIG. 3a). Importantly, these Phylomers had no effect upon PMA-induced transcription from a control Srxn1 promoter in which the AP1 response elements had been ablated by mutation (FIG. 3b), confirming that their effect on the Srxn1 promoter is AP1-specific.

Experiment [2] deals with Srxn1 promoter containing mutated AP1 response elements. The experiment is described as follows: Control Srxn1 promoter reporter with mutated AP1 response elements. The following applies: n=3, p>0.05. On the procedure:
From this primary screen, we concentrated on the PYC36-like, AP1-inhibitory Phylomers, and selected 14 initial hits. […] Reporter activity/inhibition was calculated by normalizing Firefly activity to Renilla.

Experiment [3] has as its system AP1-luciferase reporter. The experiment is described as follows: Primary phenotypic screen: PMA-mediated AP1-driven luciferase reporter in transfected U2oS cells. As to conditions: U2oS cells co-transfected with Phylomer plasmid, PMA 100 nM, read 24 hours later. The protocol:
The mini-library of 3120 individual transfection-ready plasmids was used in a microtitre plate-based transfection assay system (ie, and array-based format) in the U2oS cell line, and the effects of the Phyomers expressed from this mini-library were assessed upon PMA-mediated AP1-driven luciferase reporter expression. The previously identified Phylomer PYC36 ([…] SEQ ID NO: 5)—found by reverse target-based yeast 2-hybrid screening against c-Jun bait, and known to affect AP1-dependent transcription (Mead et al., 2010 J. Neurochem, 112: 258-270)—was used as positive control.
Briefly, in triplicate plates, 1×10^5 U2oS cells were plated overnight and co-transfected with 100 ng of both AP1-luciferase reporter (Stratagene) and either an individual Phylomer construct from the mini-libary, or positive control (pcDNA3.1/PYC36) or vector control (pcDNA3.1/nV5-DEST-GusB). PMA (100 nM) was used to induce AP1-dependent luciferase expression 6 hours post-transfection, and luciferase activity was measured 24 hours later (SteadlyGlo, Promega).
Background: In a reporter assay the amount or activity of a reporter protein is the signal.

Take “6G8: AP1-inhibitory Phylomer RAEKCGKLF (SEQ ID NO: 10) (Protein fragment of unknown organism) [Phylomer 6G8]”: in experiment [1], the “PMA-dependent activation of the Srxn1 promoter (Srxn1-luciferase activity)” value (from here on “PMA-dependent activation”) was “inhibited”. In addition, the “PMA-induced transcription from control Srxn1 promoter with AP1 response elements ablated by mutation” value in experiment [2] was “no effect”.

For “48E6: AP1-inhibitory Phylomer HSDRTADI (SEQ ID NO: 18) (Protein fragment of unknown organism) [Phylomer 48E6]”, in experiment [1], the “PMA-dependent activation” value is given as “inhibited”. In addition, the “PMA-induced transcription from control Srxn1 promoter with AP1 response elements ablated by mutation” value in experiment [2] is given as “no effect”.

For the substance “PYC36: previously identified Phylomer GLQGRRRQGYQSIKP (SEQ ID NO: 5), positive control known to affect AP1-dependent transcription (Protein fragment of unknown organism) [reference compound]”, in experiment [3], the “AP1-dependent luciferase activity (transcription)” value is “inhibited transcription”. The “PMA-dependent activation” value in experiment [1] was “significant inhibition”.

The record behind these values is patent US20190204338A1, “Methods for the Characterisation of Interaction Sites on Target Proteins” (Phylogica Limited, priority 2012, published 2019).
